# Results taken from ChEMBL document CHEMBL1240496, “Development of potent glucagon-like peptide-1 agonists with high enzyme stability via introduction of multiple lactam bridges” (J Med Chem, 2010).
# Bridge positions count the residues as written; N and C are the ends. Peptide text beside a SMILES is read from it.
# Legend:
# [1] = biological target: T1, Glucagon-like peptide 1 receptor (Homo sapiens, UniProt P43220); test: Activation of human GLP1 receptor expressed in HEK293 cells assessed as increase in cAMP accumulation; assay type: functional, cell-based
# DPP4 = test: Chemical stability of the compound assessed as half life up to 24 hrs by HPLC analysis in presence of human recombinant DPP4; assay type: physicochemical
# NEP 24.11 = test: Chemical stability of the compound assessed as half life up to 24 hrs by HPLC analysis in presence of human recombinant NEP 24.11; assay type: physicochemical
# [2] = biological target: T1, Glucagon-like peptide 1 receptor; test: Activation of human GLP1 receptor expressed in HEK293 cells assessed as increase in cAMP accumulation relative to GLP1; assay type: functional, cell-based
# T1 sequence (P43220 whole entry): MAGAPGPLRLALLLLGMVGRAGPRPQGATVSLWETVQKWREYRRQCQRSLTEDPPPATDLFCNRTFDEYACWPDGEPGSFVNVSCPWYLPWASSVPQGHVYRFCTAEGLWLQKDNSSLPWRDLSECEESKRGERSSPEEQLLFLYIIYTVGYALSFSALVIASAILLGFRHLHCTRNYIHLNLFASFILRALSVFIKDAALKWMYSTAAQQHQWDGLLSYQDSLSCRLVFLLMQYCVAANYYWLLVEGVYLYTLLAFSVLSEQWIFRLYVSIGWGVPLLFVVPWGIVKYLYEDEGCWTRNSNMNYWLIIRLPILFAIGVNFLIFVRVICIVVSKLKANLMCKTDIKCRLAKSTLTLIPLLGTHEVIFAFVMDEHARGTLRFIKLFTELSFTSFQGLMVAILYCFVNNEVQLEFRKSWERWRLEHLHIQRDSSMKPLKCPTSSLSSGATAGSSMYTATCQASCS
Structure (SMILES),EC50 ([1]; read-out: EC50),half-life (DPP4),half-life (NEP 24.11),Activity [2],EC50 ([1]; read-out: pEC50 (converted))
CC[C@H](C)[C@H](NC(=O)[C@H](Cc1ccccc1)NC(=O)[C@H](CCC(=O)O)NC(=O)[C@H](CCCCN)NC(=O)[C@H](C)NC(=O)[C@H](C)NC(=O)[C@H](CCC(N)=O)NC(=O)[C@@H]1CCCCNC(=O)CC[C@H](NC(=O)[C@H](CO)NC(=O)[C@@H](NC(=O)[C@H](CC(=O)O)NC(=O)[C@H](CO)NC(=O)[C@@H](NC(=O)[C@H](Cc2ccccc2)NC(=O)[C@@H](NC(=O)CNC(=O)[C@H](CCC(=O)O)NC(=O)[C@H](C)NC(=O)[C@@H](N)Cc2cnc[nH]2)[C@@H](C)O)[C@@H](C)O)C(C)C)C(=O)N[C@@H](Cc2ccc(O)cc2)C(=O)N[C@@H](CC(C)C)C(=O)N[C@@H](CCC(=O)O)C(=O)N1)C(=O)N[C@H]1CCC(=O)NCCCC[C@@H](C(=O)NCC(=O)N[C@@H](CCCN=C(N)N)C(N)=O)NC(=O)[C@H](C(C)C)NC(=O)[C@H](CC(C)C)NC(=O)[C@H](Cc2c[nH]c3ccccc23)NC1=O,1.9 nM,3.6 h,> 96 h,–,–
CC[C@H](C)[C@H](NC(=O)[C@H](Cc1ccccc1)NC(=O)[C@H](CCC(=O)O)NC(=O)[C@@H]1CCCCNC(=O)CC[C@H](NC(=O)[C@H](CCC(=O)O)NC(=O)[C@H](CC(C)C)NC(=O)[C@H](Cc2ccc(O)cc2)NC(=O)[C@H](CO)NC(=O)[C@H](CO)NC(=O)[C@@H](NC(=O)[C@H](CC(=O)O)NC(=O)[C@H](CO)NC(=O)[C@@H](NC(=O)[C@H](Cc2ccccc2)NC(=O)[C@@H](NC(=O)CNC(=O)[C@H](CCC(=O)O)NC(=O)[C@H](C)NC(=O)[C@@H](N)Cc2cnc[nH]2)[C@@H](C)O)[C@@H](C)O)C(C)C)C(=O)N[C@@H](CCC(N)=O)C(=O)N[C@@H](C)C(=O)N[C@@H](C)C(=O)N1)C(=O)N[C@@H](C)C(=O)N[C@@H](Cc1c[nH]c2ccccc12)C(=O)N[C@@H](CC(C)C)C(=O)N[C@H](C(=O)N[C@@H](CCCCN)C(=O)NCC(=O)N[C@@H](CCCNC(=N)N)C(=O)O)C(C)C,–,–,–,160%,–
CC[C@H](C)[C@H](NC(=O)[C@H](Cc1ccccc1)NC(=O)[C@H](CCC(=O)O)NC(=O)[C@H](CCCCN)NC(=O)[C@H](C)NC(=O)[C@H](C)NC(=O)[C@@H]1CCCCNC(=O)CC[C@H](NC(=O)[C@H](CO)NC(=O)[C@@H](NC(=O)[C@H](CC(=O)O)NC(=O)[C@H](CO)NC(=O)[C@@H](NC(=O)[C@H](Cc2ccccc2)NC(=O)[C@@H](NC(=O)CNC(=O)[C@H](CCC(=O)O)NC(=O)[C@H](C)NC(=O)[C@@H](N)Cc2cnc[nH]2)[C@@H](C)O)[C@@H](C)O)C(C)C)C(=O)N[C@@H](Cc2ccc(O)cc2)C(=O)N[C@@H](CC(C)C)C(=O)NCC(=O)N1)C(=O)N[C@@H](C)C(=O)N[C@@H](Cc1c[nH]c2ccccc12)C(=O)N[C@@H](CC(C)C)C(=O)N[C@H](C(=O)N[C@@H](CCCCN)C(=O)NCC(=O)N[C@@H](CCCNC(=N)N)C(N)=O)C(C)C (H-HAEGTFTSDVSEYLGKAAKEFIAWLVKGR-NH2; lactam 12-16),0.6 nM,2.1 h,10 h,770%,–
CC[C@H](C)[C@H](NC(=O)[C@H](Cc1ccccc1)NC(=O)[C@H](CCC(=O)O)NC(=O)[C@@H]1CCCCNC(=O)CC[C@H](NC(=O)[C@H](CCC(=O)O)NC(=O)[C@H](CC(C)C)NC(=O)[C@H](Cc2ccc(O)cc2)NC(=O)[C@H](CO)NC(=O)[C@H](CO)NC(=O)[C@@H](NC(=O)[C@H](CC(=O)O)NC(=O)[C@H](CO)NC(=O)[C@@H](NC(=O)[C@H](Cc2ccccc2)NC(=O)[C@@H](NC(=O)CNC(=O)[C@H](CCC(=O)O)NC(=O)[C@H](C)NC(=O)[C@@H](N)Cc2cnc[nH]2)[C@@H](C)O)[C@@H](C)O)C(C)C)C(=O)N[C@@H](CCC(N)=O)C(=O)N[C@@H](C)C(=O)N[C@@H](C)C(=O)N1)C(=O)N[C@@H](C)C(=O)N[C@@H](Cc1c[nH]c2ccccc12)C(=O)N[C@@H](CC(C)C)C(=O)N[C@H](C(=O)N[C@@H](CCCCN)C(=O)NCC(=O)N[C@@H](CCCN=C(N)N)C(=O)O)C(C)C,2.8 nM,2.9 h,6.9 h,–,5.01 nM
CC[C@H](C)[C@H](NC(=O)[C@H](Cc1ccccc1)NC(=O)[C@H](CCC(=O)O)NC(=O)[C@H](CCCCN)NC(=O)[C@H](C)NC(=O)[C@H](C)NC(=O)[C@H](CCC(N)=O)NC(=O)CNC(=O)[C@H](CC(C)C)NC(=O)[C@H](Cc1ccc(O)cc1)NC(=O)[C@H](CO)NC(=O)[C@H](CO)NC(=O)[C@@H](NC(=O)[C@H](CC(=O)O)NC(=O)[C@H](CO)NC(=O)[C@@H](NC(=O)[C@H](Cc1ccccc1)NC(=O)[C@@H](NC(=O)CNC(=O)[C@H](CCC(=O)O)NC(=O)[C@H](C)NC(=O)[C@@H](N)Cc1cnc[nH]1)[C@@H](C)O)[C@@H](C)O)C(C)C)C(=O)N[C@@H](C)C(=O)N[C@@H](Cc1c[nH]c2ccccc12)C(=O)N[C@@H](CC(C)C)C(=O)N[C@H](C(=O)N[C@@H](CCCCN)C(=O)NCC(=O)N[C@@H](CCCNC(=N)N)C(=O)O)C(C)C [GLP-1] (H-HAEGTFTSDVSSYLGQAAKEFIAWLVKGR-OH),–,2 h,4.6 h,–,–
CC[C@H](C)[C@H](NC(=O)[C@H](Cc1ccccc1)NC(=O)[C@H](CCC(=O)O)NC(=O)[C@H](CCCCN)NC(=O)[C@H](C)NC(=O)[C@H](C)NC(=O)[C@H](CCC(N)=O)NC(=O)[C@@H]1CCCCNC(=O)CC[C@H](NC(=O)[C@H](CO)NC(=O)[C@@H](NC(=O)[C@H](CC(=O)O)NC(=O)[C@H](CO)NC(=O)[C@@H](NC(=O)[C@H](Cc2ccccc2)NC(=O)[C@@H](NC(=O)CNC(=O)[C@H](CCC(=O)O)NC(=O)[C@H](C)NC(=O)[C@@H](N)Cc2cnc[nH]2)[C@@H](C)O)[C@@H](C)O)C(C)C)C(=O)N[C@@H](Cc2ccc(O)cc2)C(=O)N[C@@H](CC(C)C)C(=O)N[C@@H](CCC(=O)O)C(=O)N1)C(=O)N[C@H]1CCC(=O)NCCCC[C@@H](C(=O)NCC(=O)N[C@@H](CCCNC(=N)N)C(N)=O)NC(=O)[C@H](C(C)C)NC(=O)[C@H](CC(C)C)NC(=O)[C@H](Cc2c[nH]c3ccccc23)NC1=O,–,–,–,240%,–

# Now from value to compound:
EC50 ([1]; read-out: EC50),half-life (DPP4),half-life (NEP 24.11),Activity [2],EC50 ([1]; read-out: pEC50 (converted)),Structure (SMILES)
1.8 nM,> 24 h,> 96 h,–,–,"CC[C@H](C)[C@H](NC(=O)[C@H](Cc1ccccc1)NC(=O)[C@H](CCC(=O)O)NC(=O)[C@@H]1CCCCNC(=O)CC[C@H](NC(=O)[C@H](CCC(=O)O)NC(=O)[C@@H]2CCCCNC(=O)CC[C@H](NC(=O)[C@H](CC(=O)O)NC(=O)[C@H](CO)NC(=O)[C@@H](NC(=O)[C@H](Cc3ccccc3)NC(=O)[C@@H](NC(=O)CNC(=O)[C@H](CCC(=O)O)NC(=O)[C@H](C)NC(=O)[C@@H](N)Cc3cnc[nH]3)[C@@H](C)O)[C@@H](C)O)C(=O)N[C@@H](CO)C(=O)N[C@@H](CO)C(=O)N[C@@H](Cc3ccc(O)cc3)C(=O)N2)C(=O)N[C@@H](CCC(N)=O)C(=O)N[C@@H](C)C(=O)N[C@@H](C)C(=O)N1)C(=O)N[C@H]1CCC(=O)NCCCC[C@@H](C(=O)NCC(=O)N[C@@H](CCCN=C(N)N)C(N)=O)NC(=O)[C@H](C(C)C)NC(=O)[C@H](CC(C)C)NC(=O)[C@H](Cc2c[nH]c3ccccc23)NC1=O (H-HAEGTFTSDESSYKEEQAAKEFIEWLVKGR-NH2; lactam 10-14, 16-20, 24-28)"
–,–,–,140%,–,"CC[C@H](C)[C@H](NC(=O)[C@H](Cc1ccccc1)NC(=O)[C@H](CCC(=O)O)NC(=O)[C@H](CCCCN)NC(=O)[C@H](C)NC(=O)[C@H](C)NC(=O)[C@H](CCC(N)=O)NC(=O)CNC(=O)[C@H](CCC(=O)O)NC(=O)[C@@H]1CCCCNC(=O)CC[C@H](NC(=O)[C@H](CC(=O)O)NC(=O)[C@H](CO)NC(=O)[C@@H](NC(=O)[C@H](Cc2ccccc2)NC(=O)[C@@H](NC(=O)CNC(=O)[C@H](CCC(=O)O)NC(=O)[C@H](C)NC(=O)[C@@H](N)Cc2cnc[nH]2)[C@@H](C)O)[C@@H](C)O)C(=O)N[C@@H](CO)C(=O)N[C@@H](CO)C(=O)N[C@@H](Cc2ccc(O)cc2)C(=O)N1)C(=O)N[C@H]1CCC(=O)NCCCC[C@@H](C(=O)NCC(=O)N[C@@H](CCCNC(=N)N)C(N)=O)NC(=O)[C@H](C(C)C)NC(=O)[C@H](CC(C)C)NC(=O)[C@H](Cc2c[nH]c3ccccc23)NC1=O (H-HAEGTFTSDESSYKEGQAAKEFIEWLVKGR-NH2; lactam 10-14, 24-28)"
3.3 nM,3.1 h,6.6 h,–,–,"CC[C@H](C)[C@H](NC(=O)[C@H](Cc1ccccc1)NC(=O)[C@H](CCC(=O)O)NC(=O)[C@H](CCCCN)NC(=O)[C@H](C)NC(=O)[C@H](C)NC(=O)[C@H](CCC(N)=O)NC(=O)CNC(=O)[C@H](CCC(=O)O)NC(=O)[C@@H]1CCCCNC(=O)CC[C@H](NC(=O)[C@H](CC(=O)O)NC(=O)[C@H](CO)NC(=O)[C@@H](NC(=O)[C@H](Cc2ccccc2)NC(=O)[C@@H](NC(=O)CNC(=O)[C@H](CCC(=O)O)NC(=O)[C@H](C)NC(=O)[C@@H](N)Cc2cnc[nH]2)[C@@H](C)O)[C@@H](C)O)C(=O)N[C@@H](CO)C(=O)N[C@@H](CO)C(=O)N[C@@H](Cc2ccc(O)cc2)C(=O)N1)C(=O)N[C@H]1CCC(=O)NCCCC[C@@H](C(=O)NCC(=O)N[C@@H](CCCN=C(N)N)C(N)=O)NC(=O)[C@H](C(C)C)NC(=O)[C@H](CC(C)C)NC(=O)[C@H](Cc2c[nH]c3ccccc23)NC1=O (H-HAEGTFTSDESSYKEGQAAKEFIEWLVKGR-NH2; lactam 10-14, 24-28)"
–,–,–,260%,–,"CC[C@H](C)[C@H](NC(=O)[C@H](Cc1ccccc1)NC(=O)[C@H](CCC(=O)O)NC(=O)[C@@H]1CCCCNC(=O)CC[C@H](NC(=O)[C@H](CCC(=O)O)NC(=O)[C@@H]2CCCCNC(=O)CC[C@H](NC(=O)[C@H](CC(=O)O)NC(=O)[C@H](CO)NC(=O)[C@@H](NC(=O)[C@H](Cc3ccccc3)NC(=O)[C@@H](NC(=O)CNC(=O)[C@H](CCC(=O)O)NC(=O)[C@H](C)NC(=O)[C@@H](N)Cc3cnc[nH]3)[C@@H](C)O)[C@@H](C)O)C(=O)N[C@@H](CO)C(=O)N[C@@H](CO)C(=O)N[C@@H](Cc3ccc(O)cc3)C(=O)N2)C(=O)N[C@@H](CCC(N)=O)C(=O)N[C@@H](C)C(=O)N[C@@H](C)C(=O)N1)C(=O)N[C@H]1CCC(=O)NCCCC[C@@H](C(=O)NCC(=O)N[C@@H](CCCNC(=N)N)C(N)=O)NC(=O)[C@H](C(C)C)NC(=O)[C@H](CC(C)C)NC(=O)[C@H](Cc2c[nH]c3ccccc23)NC1=O (H-HAEGTFTSDESSYKEEQAAKEFIEWLVKGR-NH2; lactam 10-14, 16-20, 24-28)"
